Type in all cases: functional, cell-based
The target in data set [1] is T1, ATP-dependent translocase ABCB1 (Homo sapiens, UniProt P08183). The data set can be described thus: TP_TRANSPORTER: cell accumulation of daunomycin in MDA435/LCC6MDR1 cells.
The target of data set [2] is T1, ATP-dependent translocase ABCB1. The data set can be described thus: TP_TRANSPORTER: increase in Daunomycin intracellular accumulation (Daunomycin: 0.05 uM, Morin: 50 uM) in MDA435/[…] cells.
Data set [3] shares this target. The data set can be described thus: TP_TRANSPORTER: increase in Daunomycin intracellular accumulation (Daunomycin: 0.05 uM, BiochaninA: 50 uM) in MDA435/[…] cell.
For data set [4] the target is unchanged. The data set can be described thus: TP_TRANSPORTER: increase in Daunomycin intracellular accumulation (Daunomycin: 0.05 uM, Silymarin: 50 uM) in MDA435/LCC6 MDR1 cells. As to conditions: mda-mb-435/lcc6 mdr1, 50 µM.

Our source for the Activity values is ChEMBL document CHEMBL2074188, “Effects of the flavonoids biochanin A, morin, phloretin, and silymarin on P-glycoprotein-mediated transport” (J Pharmacol Exp Ther, 2003).

T1 sequence (P08183 whole entry): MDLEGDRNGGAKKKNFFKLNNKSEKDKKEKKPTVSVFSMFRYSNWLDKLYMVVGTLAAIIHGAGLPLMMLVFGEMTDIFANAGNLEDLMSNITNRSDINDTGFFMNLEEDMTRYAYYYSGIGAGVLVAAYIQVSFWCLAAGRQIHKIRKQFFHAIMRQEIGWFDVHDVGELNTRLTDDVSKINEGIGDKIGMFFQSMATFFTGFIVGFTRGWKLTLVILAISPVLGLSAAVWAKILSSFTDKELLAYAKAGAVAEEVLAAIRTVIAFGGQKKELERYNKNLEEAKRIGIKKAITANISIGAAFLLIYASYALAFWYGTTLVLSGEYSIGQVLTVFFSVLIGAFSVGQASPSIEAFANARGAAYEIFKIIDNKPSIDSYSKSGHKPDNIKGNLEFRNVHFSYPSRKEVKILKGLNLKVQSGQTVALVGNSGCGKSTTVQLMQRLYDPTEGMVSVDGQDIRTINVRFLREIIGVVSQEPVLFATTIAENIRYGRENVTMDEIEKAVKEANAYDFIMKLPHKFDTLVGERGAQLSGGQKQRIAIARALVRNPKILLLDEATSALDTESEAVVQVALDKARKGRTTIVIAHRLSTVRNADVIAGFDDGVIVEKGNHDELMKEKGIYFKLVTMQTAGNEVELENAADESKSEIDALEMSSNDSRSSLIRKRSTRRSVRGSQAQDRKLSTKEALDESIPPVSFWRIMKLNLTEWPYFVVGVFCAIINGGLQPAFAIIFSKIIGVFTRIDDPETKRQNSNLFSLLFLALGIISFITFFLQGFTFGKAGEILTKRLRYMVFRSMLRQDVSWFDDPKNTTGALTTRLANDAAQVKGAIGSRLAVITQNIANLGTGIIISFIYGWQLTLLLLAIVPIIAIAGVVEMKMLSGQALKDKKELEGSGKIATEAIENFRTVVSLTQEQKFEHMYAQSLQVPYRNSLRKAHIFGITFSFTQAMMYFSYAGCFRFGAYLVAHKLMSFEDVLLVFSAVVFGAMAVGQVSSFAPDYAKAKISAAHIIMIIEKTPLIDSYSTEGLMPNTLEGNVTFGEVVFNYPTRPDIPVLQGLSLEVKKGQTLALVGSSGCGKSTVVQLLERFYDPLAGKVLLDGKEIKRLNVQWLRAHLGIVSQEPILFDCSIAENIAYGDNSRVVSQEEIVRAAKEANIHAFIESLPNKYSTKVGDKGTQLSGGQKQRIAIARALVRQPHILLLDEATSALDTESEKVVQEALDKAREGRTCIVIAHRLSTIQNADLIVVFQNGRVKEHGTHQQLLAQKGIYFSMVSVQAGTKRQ

On to `O=C(CCc1ccc(O)cc1)c1c(O)cc(O)cc1O` [PHLORETIN], for which the Activity entry in data set [1] is “inhibitor [+]”.

Regarding `O=c1c(O)c(-c2ccc(O)cc2O)oc2cc(O)cc(O)c12` [MORIN], the Activity entry in data set [2] was “inhibitor [(at a rough estimate) 585 % of control]”; in data set [1], “inhibitor [+]”.

As for `COc1ccc(CCN(C)CCCC(C#N)(c2ccc(OC)c(OC)c2)C(C)C)cc1OC` (stereo not drawn) [VERAPAMIL], the Activity result in data set [1] is “inhibitor [+]”.

`COc1ccc(-c2coc3cc(O)cc(O)c3c2=O)cc1` [BIOCHANIN]: the Activity result in data set [3] was “inhibitor [(at a rough estimate) 645 % of control]”; in data set [1], “inhibitor [+]”.

For SILYMARIN, the Activity entry in data set [4] was “inhibitor [(at a rough estimate) 420 % of control]”; in data set [1] it was “inhibitor [+]”.
